Assay [1] has as its target T1, CYP11B2 (aldosterone synthase) (Homo sapiens, UniProt P19099).
T1 construct: the NCI-H295R cells have CYP11B2 (aldosterone synthase) and CYP11B1 (steroid 11-hydroxylase); host or cells: NCI-H295R
T1 sequence (P19099 25-503): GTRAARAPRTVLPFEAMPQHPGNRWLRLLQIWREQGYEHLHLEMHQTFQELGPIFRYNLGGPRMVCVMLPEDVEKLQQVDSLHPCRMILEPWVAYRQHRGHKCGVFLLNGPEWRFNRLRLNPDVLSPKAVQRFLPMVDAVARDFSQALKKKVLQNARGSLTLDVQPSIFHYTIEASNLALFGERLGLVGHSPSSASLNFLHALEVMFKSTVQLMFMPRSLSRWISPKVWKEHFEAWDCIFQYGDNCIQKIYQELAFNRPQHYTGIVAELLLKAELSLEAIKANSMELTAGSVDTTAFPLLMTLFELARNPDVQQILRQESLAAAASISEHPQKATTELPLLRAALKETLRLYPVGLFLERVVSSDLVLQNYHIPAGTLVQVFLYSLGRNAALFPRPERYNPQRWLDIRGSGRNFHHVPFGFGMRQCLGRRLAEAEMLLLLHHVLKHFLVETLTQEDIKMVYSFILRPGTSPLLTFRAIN
Nature of the assay: Aldosterone cell secretion in NCI-H295R cells. The assay is classed as cell-based. To be noted: 24 hours incubation with cell stimulant. From the text:
(§1) The activities of a compound according to the present invention can be assessed by the following in vitro method well-described in the art.
(§2) In particular, the inhibition of aldosterone and cortisol secretion in vitro can be determined by the following assay.
(§3) The cell line NCI-H295R was originally isolated from an adrenocortical carcinoma and has been characterized in the literature through the stimulable secretion of steroid hormones and the presence of the enzymes essential for steroidogenesis. […]
(§4) For in vitro measurement of aldosterone and cortisol activity, human adrenocortical carcinoma NCI-H295R cells are seeded in NBS 96-well plates at a density of 25,000 cells/well in 100 μL of a growth medium containing DMEM/F12 supplemented with 10% FCS, 2.5% Nu-serum, 1 μg ITS/ml, and 1× antibiotic/antimycotic. […] At the end of incubation, the excretion of aldosterone and cortisol into the culture medium can be detected and quantified by commercially available, specific monoclonal antibodies in radioimmunoassays in accordance with the manufacturer's instructions.
(§5) Measurement of aldosterone can also be performed using a 96-well plate format. […] The amount of aldosterone in each sample is calculated by comparing with a standard curve generated using known quantities of the hormone. […]

Assay [2] addresses T2, CYP11B1 (steroid 11-hydroxylase) (Homo sapiens, UniProt P15538).
T2 construct: the NCI-H295R cells have CYP11B2 (aldosterone synthase) and CYP11B1 (steroid 11-hydroxylase); host or cells: NCI-H295R
T2 sequence (P15538 25-503): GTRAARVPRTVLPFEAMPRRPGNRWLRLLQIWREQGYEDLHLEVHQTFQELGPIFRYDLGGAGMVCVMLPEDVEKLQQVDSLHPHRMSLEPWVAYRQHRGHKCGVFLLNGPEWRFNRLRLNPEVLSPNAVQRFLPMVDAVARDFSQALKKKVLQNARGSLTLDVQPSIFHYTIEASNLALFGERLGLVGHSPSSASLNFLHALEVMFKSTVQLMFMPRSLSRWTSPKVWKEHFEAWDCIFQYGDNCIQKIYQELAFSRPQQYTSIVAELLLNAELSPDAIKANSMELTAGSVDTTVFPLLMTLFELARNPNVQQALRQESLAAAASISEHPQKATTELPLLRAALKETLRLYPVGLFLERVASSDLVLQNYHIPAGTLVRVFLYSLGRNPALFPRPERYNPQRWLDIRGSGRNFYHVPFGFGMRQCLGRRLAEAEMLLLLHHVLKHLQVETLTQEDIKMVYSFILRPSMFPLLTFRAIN
Nature of the assay: Cortisol cell secretion in NCI-H295R cells. The assay is classed as cell-based. The settings on record: 24 hours incubation with cell stimulant.
Description: as §1, §2, §3, §4, §5

In general, IC50 refers to the midpoint of a concentration-inhibition curve.

For `CCS(=O)(=O)NC(C)c1cncc(-c2c(C#N)c3ccc(Cl)cc3n2C)c1` (racemic) [216 (one enantiomer), (R) and (S)-ethanesulfonic acid {1-[5-(6-chloro-3-cyano-1-methyl-1H-indol-2-yl)-pyridin-3-yl]-ethyl}-amide], the IC50 worked out at 32 nM in assay [1] and 600 nM in assay [2].

Turning to `CCS(=O)(=O)NC(C)c1cncc(-c2c(C#N)c3ccc(Cl)cc3n2C)c1` (racemic) [216 (other enantiomer), (R) and (S)-ethanesulfonic acid {1-[5-(6-chloro-3-cyano-1-methyl-1H-indol-2-yl)-pyridin-3-yl]-ethyl}-amide], the IC50 in assay [1] was found to be 35 nM; in assay [2], 1230 nM.

The values above are taken from US9242963B2, “Organic compounds” (NOVARTIS AG, priority 2008, dated 2016).
